Literature values in patent US20060275209A1, “Methods of [11c]-radiolabelling phenothiazine and phenothiazine-like compounds” (priority 2003, published 2006).

Legend:
[1] = test system: melanoma cells; settings: diffuses through the cellular membranes
[2] = forms a charge transfer complex with the pigment

In the case of CN(C)c1ccc2nc3ccc(N(C)C)cc3[s+]c2c1.[Cl-] [Methylene blue, 3,7-bis(dimethylamino)phenothiazine-5-ium chloride], the “accumulation in melanoma cells” value [1] is given as “accumulates selectively” and the affinity to melanin [2] is given as “very high affinity”.
